Each compound was assayed against T1, SIRT1 (Homo sapiens, UniProt Q96EB6) (assay: Trp mass spectrometry assay of SIRT1 activation). Conditions: Trp mass spectrometry assay; EC1.5 = concentration of test compound that results in 150% activation of SIRT1.
T1 sequence (Q96EB6 1-747): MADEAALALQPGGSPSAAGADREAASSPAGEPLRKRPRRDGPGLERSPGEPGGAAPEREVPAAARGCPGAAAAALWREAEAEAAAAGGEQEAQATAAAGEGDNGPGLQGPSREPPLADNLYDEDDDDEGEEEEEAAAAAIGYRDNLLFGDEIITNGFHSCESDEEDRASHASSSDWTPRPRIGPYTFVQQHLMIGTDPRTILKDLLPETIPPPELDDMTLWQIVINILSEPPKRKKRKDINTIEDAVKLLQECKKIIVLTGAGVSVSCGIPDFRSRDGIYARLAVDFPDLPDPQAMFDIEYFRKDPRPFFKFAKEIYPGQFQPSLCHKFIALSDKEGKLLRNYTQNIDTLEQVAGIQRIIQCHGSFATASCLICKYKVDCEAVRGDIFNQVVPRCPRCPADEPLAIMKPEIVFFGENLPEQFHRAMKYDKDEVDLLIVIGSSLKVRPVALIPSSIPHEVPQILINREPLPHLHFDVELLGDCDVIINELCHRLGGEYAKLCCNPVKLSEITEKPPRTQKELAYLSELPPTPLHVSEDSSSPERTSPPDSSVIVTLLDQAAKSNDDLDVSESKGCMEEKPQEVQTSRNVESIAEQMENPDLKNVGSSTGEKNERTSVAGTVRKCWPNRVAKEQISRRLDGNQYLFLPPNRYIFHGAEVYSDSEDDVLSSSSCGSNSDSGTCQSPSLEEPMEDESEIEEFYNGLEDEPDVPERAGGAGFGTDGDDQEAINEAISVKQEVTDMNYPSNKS
Format: biochemical
Procedure, shortened: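 N-terminal His-tagged human SIRT1 (10 nM, E. coli BL21(DE3)) with 0.5 μM Ac-RHKK(Ac)W-NH2 peptide and 120 μM βNAD+, 25 min at 25 °C in HEPES pH 7.5, formic acid stop. OAADPR or deacetylated peptide quantified by mass spectrometry; EC1.5 (50% activity increase over control) and Percent Maximum Activation reported.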

| Compound | Tryp AVG EC1.5 (μM) |
| --- | --- |
| O=C(Nc1cnccn1)N1c2nc(-c3cncc(C(F)(F)F)c3)ccc2N2CCC[C@H]1C2 [Example 452] | A (A (EC1.5<1 μM)) |
| O=C(Nc1cncc(F)c1)N1c2nc(-c3cccnc3)ccc2N2CCC[C@H]1C2 [Example 453] | B (B (EC1.5 1-25 μM)) |
| O=C(Nc1cnccn1)N1c2nc(-c3cccnc3)ccc2N2CCC[C@H]1C2 [Example 454] | B (B (EC1.5 1-25 μM)) |
| O=C(Nc1cccnc1)N1c2nc(-c3cccnc3)ccc2N2CCC[C@H]1C2 [Example 455] | B (B (EC1.5 1-25 μM)) |
| O=C(Nc1ccncn1)N1c2nc(-c3cccnc3)ccc2N2CCC[C@H]1C2 [Example 456] | B (B (EC1.5 1-25 μM)) |
| O=C(Nc1cccnn1)N1c2nc(-c3cccnc3)ccc2N2CCC[C@H]1C2 [Example 457] | B (B (EC1.5 1-25 μM)) |
| CN(C)c1ccc(-c2ccc3c(n2)N(C(=O)Nc2cnccn2)[C@H]2CCN3C2)cn1 [Example 458] | B (B (EC1.5 1-25 μM)) |
| N#Cc1cncc(-c2ccc3c(n2)N(C(=O)Nc2cnccn2)[C@H]2CCN3C2)c1 [Example 459] | A (A (EC1.5<1 μM)) |
| O=C(Nc1cncc(F)c1)N1c2nc(-c3cccc(C(F)(F)F)c3)ccc2S(=O)(=O)N2CC[C@H]1C2 [Example 460] | B (B (EC1.5 1-25 μM)) |
| O=C(Nc1cnccn1)N1c2nc(-c3ccc(Cl)c(Cl)c3)ccc2N2CC[C@H]1C2 [Example 461] | A (A (EC1.5<1 μM)) |
| O=C(Nc1cnccn1)N1c2nc(-c3ccnc(N4CC[C@@H](F)C4)c3)ccc2N2CC[C@H]1C2 [Example 462] | B (B (EC1.5 1-25 μM)) |
| O=C(Nc1ccc(F)cn1)N1c2nc(-c3ccnc(N4CC[C@H](F)C4)c3)ccc2N2CC[C@H]1C2 [Example 463] | A (A (EC1.5<1 μM)) |
| O=C(Nc1cncc(F)c1)N1c2nc(-c3ccnc(N4CC[C@@H](F)C4)c3)ccc2N2CC[C@H]1C2 [Example 464] | B (B (EC1.5 1-25 μM)) |
| Cc1ccc(-c2ccc3c(n2)N(C(=O)Nc2ccccn2)[C@H]2CCCN3C2)cn1 [Example 465] | B (B (EC1.5 1-25 μM)) |
| Cc1nc(NC(=O)N2c3nc(-c4cccnc4)ccc3N3CCC[C@H]2C3)sc1C [Example 466] | B (B (EC1.5 1-25 μM)) |
| Cc1ccc(-c2ccc3c(n2)N(C(=O)Nc2cccnn2)[C@H]2CCCN3C2)cn1 [Example 467] | B (B (EC1.5 1-25 μM)) |
| Cc1cc(-c2ccc3c(n2)N(C(=O)Nc2ccncn2)[C@H]2CCN3C2)ccn1 [Example 468] | B (B (EC1.5 1-25 μM)) |
| O=C(Nc1cncc(F)c1)N1c2nc(N3CC[C@H](F)C3)ccc2S(=O)(=O)N2CC[C@H]1C2 [Example 469] | C (C (EC1.5>25 μM)) |
| O=C(Nc1ccccn1)N1c2nc(-c3cncc(F)c3)ccc2N2CCC[C@H]1C2 [Example 470] | A (A (EC1.5<1 μM)) |
| Cc1nc(NC(=O)N2c3nc(-c4cncc(F)c4)ccc3N3CCC[C@H]2C3)sc1C [Example 471] | B (B (EC1.5 1-25 μM)) |
| O=C(Nc1cnccn1)N1c2nc(-c3cccc(C(F)(F)F)c3)ccc2N2CCC1CC2 [Example 472] | A (A (EC1.5<1 μM)) |
| O=C(Nc1cccc(-c2cnco2)c1)N1c2nc(-c3cccc(C(F)(F)F)c3)ccc2N2CCC1CC2 [Example 473] | A (A (EC1.5<1 μM)) |
| O=C(Nc1ccc(F)cn1)N1c2nc(-c3ccnc(N4CC[C@@H](F)C4)c3)ccc2N2CC[C@H]1C2 [Example 474] | A (A (EC1.5<1 μM)) |
| O=C(Nc1cncc(F)c1)N1c2nc(-c3ccnc(N4CC[C@H](F)C4)c3)ccc2N2CC[C@H]1C2 [Example 475] | A (A (EC1.5<1 μM)) |
| Cc1nc(NC(=O)N2c3nc(-c4ccccc4C#N)ccc3N3CCC[C@H]2C3)sc1C [Example 476] | B (B (EC1.5 1-25 μM)) |
| Cc1ccc(-c2ccc3c(n2)N(C(=O)Nc2cncc(F)c2)[C@H]2CCCN3C2)cn1 [Example 477] | B (B (EC1.5 1-25 μM)) |

| Compound | Tryp AVG EC1.5 (μM) |
| --- | --- |
| COc1cc(NC(=O)N2c3nc(-c4ccc(C)nc4)ccc3N3CCC[C@H]2C3)ncn1 [Example 478] | B (B (EC1.5 1-25 μM)) |
| Cc1ccc(-c2ccc3c(n2)N(C(=O)Nc2ccncn2)[C@H]2CCCN3C2)cn1 [Example 479] | B (B (EC1.5 1-25 μM)) |
| Cc1cc(-c2ccc3c(n2)N(C(=O)Nc2cccc(-c4cnco4)c2)[C@H]2CCN3C2)ccn1 [Example 480] | A (A (EC1.5<1 μM)) |
| Cc1cc(-c2ccc3c(n2)N(C(=O)Nc2nc(C)c(C)s2)[C@H]2CCN3C2)ccn1 [Example 481] | A (A (EC1.5<1 μM)) |
| Cc1cc(-c2ccc3c(n2)N(C(=O)Nc2cnn(C)c2)[C@H]2CCN3C2)ccn1 [Example 482] | B (B (EC1.5 1-25 μM)) |
| Cc1cc(-c2ccc3c(n2)N(C(=O)Nc2ccc4nn(C)cc4c2)[C@H]2CCN3C2)ccn1 [Example 483] | A (A (EC1.5<1 μM)) |
| CN1CCCN(c2ccc3c(n2)N(C(=O)Nc2ccncn2)[C@H]2CCCN3C2)CC1 [Example 484] | C (C (EC1.5>25 μM)) |
| O=C(Nc1cccnc1)N1c2nc(-c3cccc(C(F)(F)F)c3)ccc2N2CCC1CC2 [Example 485] | A (A (EC1.5<1 μM)) |
| Cc1nn(C)c(C)c1-c1ccc2c(n1)N(C(=O)Nc1cccnc1)[C@H]1CCN2C1 [Example 486] | C (C (EC1.5>25 μM)) |
| CCCn1cc(-c2ccc3c(n2)N(C(=O)Nc2cccnc2)[C@H]2CCN3C2)cn1 [Example 487] | B (B (EC1.5 1-25 μM)) |
| Cc1nn(C)cc1-c1ccc2c(n1)N(C(=O)Nc1cccnc1)[C@H]1CCN2C1 [Example 488] | B (B (EC1.5 1-25 μM)) |
| Cc1c(-c2ccc3c(n2)N(C(=O)Nc2cccnc2)[C@H]2CCN3C2)cnn1C [Example 489] | B (B (EC1.5 1-25 μM)) |
| Cc1[nH]ncc1-c1ccc2c(n1)N(C(=O)Nc1cccnc1)[C@H]1CCN2C1 [Example 490] | B (B (EC1.5 1-25 μM)) |
| O=C(Nc1ccncn1)N1c2nc(N3CCCN(CC(F)(F)F)CC3)ccc2N2CCC[C@H]1C2 [Example 491] | A (A (EC1.5<1 μM)) |
| O=C(Nc1cc(F)ccn1)N1c2nc(-c3cccc(C(F)(F)F)c3)ccc2N2CCC1CC2 [Example 492] | A (A (EC1.5<1 μM)) |
| O=C(Nc1cccnc1)N1c2nc(-c3cc[nH]n3)ccc2N2CC[C@H]1C2 [Example 493] | B (B (EC1.5 1-25 μM)) |
| CC(C)n1cc(-c2ccc3c(n2)N(C(=O)Nc2cccnc2)[C@H]2CCN3C2)cn1 [Example 494] | B (B (EC1.5 1-25 μM)) |
| Cc1nc(C)c(-c2ccc3c(n2)N(C(=O)Nc2cccnc2)[C@H]2CCN3C2)s1 [Example 495] | B (B (EC1.5 1-25 μM)) |
| O=C(Nc1cccnc1)N1c2nc(-c3cccc(Cl)c3)ccc2N2CCC1CC2 [Example 496] | A (A (EC1.5<1 μM)) |
| O=C(Nc1cccc(-c2cnco2)c1)N1c2nc(-c3cccc(Cl)c3)ccc2N2CCC1CC2 [Example 497] | A (A (EC1.5<1 μM)) |
| Cc1cc(-c2ccc3c(n2)N(C(=O)Nc2cccnc2)[C@H]2CCN3C2)ccn1 [Example 498] | A (A (EC1.5<1 μM)) |
| COc1cncc(NC(=O)N2c3nc(-c4ccnc(C)c4)ccc3N3CC[C@H]2C3)n1 [Example 499] | A (A (EC1.5<1 μM)) |
| COc1cnc(NC(=O)N2c3nc(-c4ccnc(C)c4)ccc3N3CC[C@H]2C3)cn1 [Example 500] | A (A (EC1.5<1 μM)) |
| COc1nccnc1NC(=O)N1c2nc(-c3ccnc(C)c3)ccc2N2CC[C@H]1C2 [Example 501] | B (B (EC1.5 1-25 μM)) |
| Cc1cc(-c2ccc3c(n2)N(C(=O)Nc2ccc4c(cnn4C)c2)[C@H]2CCN3C2)ccn1 [Example 502] | A (A (EC1.5<1 μM)) |
| Cc1cc(-c2ccc3c(n2)N(C(=O)Nc2cncc(C)n2)[C@H]2CCN3C2)ccn1 [Example 503] | A (A (EC1.5<1 μM)) |

Same assay, conditions: Trp mass spectrometry assay; percent maximum fold activation of SIRT1; read-out: Tryp % Fold Act

| Compound | Emax [%] |
| --- | --- |
| O=C(Nc1cccnn1)N1c2nc(-c3cccnc3)ccc2N2CCC[C@H]1C2 [Example 457] | > 150 |
| Cc1cc(-c2ccc3c(n2)N(C(=O)Nc2ccc4nn(C)cc4c2)[C@H]2CCN3C2)ccn1 [Example 483] | > 150 |
| O=C(Nc1cc(F)ccn1)N1c2nc(-c3cccc(C(F)(F)F)c3)ccc2N2CCC1CC2 [Example 492] | > 150 |

— patent US9834558B2, “Substituted bridged urea analogs as sirtuin modulators” (GLAXOSMITHKLINE LLC, priority 2013, dated 2017)
